{
  "source": "patent US20050214328A1",
  "about": "“Methods of using and compositions comprising immunomodulatory compounds for the treatment and management of skin diseases or disorders” (priority 2004, published 2005)",
  "key": {"IL1β": {"tested_on": "IL1β", "test": "LPS-stimulated production of IL1β by PBMC", "assay_type": "cell-based", "conditions": "for secretion of the pro-inflammatory cytokine IL1β: in vitro", "source_text": "(§1) The pharmacological properties of 3-(4-amino-1-oxo-1,3-dihydro-isoindol-2-yl)-piperidine-2,6-dione or 4-(amino)-2-(2,6-dioxo-(3-piperidyl))-isoindoline-1,3-dione, including activity comparisons with thalidomide, are characterized in in vitro studies. Studies examined the effects of 3-(4-amino-1-oxo-1,3-dihydro-isoindol-2-yl)-piperidine-2,6-dione, 4-(amino)-2-(2,6-dioxo-(3-piperidyl))-isoindoline-1,3-dione or thalidomide on the production of various cytokines."}, "T-cells": {"tested_on": "T-cells", "test": "Proliferation of T-cells following primary induction by T-cell receptor (TCR) activation", "assay_type": "cell-based", "conditions": "in vitro", "source_text": "as §1"}, "TNF-α [1]": {"tested_on": "TNF-α", "test": "Inhibition of TNF-α production following LPS-stimulation of human whole blood", "assay_type": "cell-based", "conditions": "read-out: IC50 for inhibiting production of TNF-α following LPS-stimulation of human whole blood", "source_text": "(§2) Inhibitions of TNF-α production following LPS-stimulation of human PBMC and human whole blood by an immunomodulatory compound such as 3-(4-amino-1-oxo-1,3-dihydro-isoindol-2-yl)-piperidine-2,6-dione, 4-(amino)-2-(2,6-dioxo-(3-piperidyl))-isoindoline-1,3-dione or thalidomide were investigated in vitro."}, "[2]": {"tested_on": "actinic or senile keratoses", "test": "Clinical study in patients with actinic or senile keratoses", "assay_type": "in vivo, human", "conditions": "oral 25 mg daily, continuous, baseline vs after eight weeks, FIG. 1", "method": "(§3) 3-(4-Amino-1-oxo-1,3-dihydro-isoindol-2-yl)-piperidine-2,6-dione or 4-(amino)-2-(2,6-dioxo-(3-piperidyl))-isoindoline-1,3-dione is administered in an amount of from about 1 to about 25 mg per day to patients with keratoses for eight weeks, and the responses are subsequently assessed. For example, clinical studies are performed for 3-(4-amino-1-oxo-1,3-dihydro-isoindol-2-yl)-piperidine-2,6-dione in patients with actinic or senile keratoses. Patients receive continuous treatment with the compound at a oral dose of 25 mg daily."}, "acne": {"tested_on": "acne", "test": "Clinical study in acne", "assay_type": "in vivo, human", "conditions": "oral about 5 mg daily, continuous", "method": "3-(4-Amino-1-oxo-1,3-dihydro-isoindol-2-yl)-piperidine-2,6-dione or 4-(amino)-2-(2,6-dioxo-(3-piperidyl))-isoindoline-1,3-dione is administered in an amount of from about 1 to about 25 mg per day to treat acne. Patients receive continuous treatment with the compound at a oral dose of about 5 mg daily."}, "wrinkles": {"tested_on": "wrinkles", "test": "Clinical study in patients with wrinkles", "assay_type": "in vivo, human", "conditions": "oral about 5 mg daily, continuous", "method": "as §3, with “to reduce or correct wrinkles of patients.” for “to patients with keratoses for eight weeks, and the responses are subsequently assessed.”, “with wrinkles.” for “with actinic or senile keratoses.”, “of about 5” for “of 25”"}, "TNF-α mRNA": {"tested_on": "TNF-α mRNA", "test": "Degradation of TNF-α mRNA", "assay_type": "cell-based", "conditions": "in vitro", "source_text": "as §1"}, "[3]": {"tested_on": "cardiovascular and respiratory functions", "conditions": "dog, in vivo; for arterial blood pressure: 2 mg/kg", "method": "In addition, a safety pharmacology study of 3-(4-amino-1-oxo-1,3-dihydro-isoindol-2-yl)-piperidine-2,6-dione or 4-(amino)-2-(2,6-dioxo-(3-piperidyl))-isoindoline-1,3-dione was conducted in dogs. The effects of the compound on cardiovascular and respiratory functions were examined in anesthetized dogs. One group of Beagle dogs (2/sex/group) received three doses of vehicle only and the other received three ascending doses of 2, 10 and 20 mg/kg of the compound. […] The cardiovascular and respiratory changes induced by the compound were minimal at all doses when compared to the vehicle control group."}, "IL10": {"tested_on": "IL10", "test": "Production of anti-inflammatory cytokine IL10 by PBMC", "assay_type": "cell-based", "conditions": "for production of the anti-inflammatory cytokine IL10: PBMC; for secretion of the anti-inflammatory cytokine IL10: in vitro", "source_text": "as §1"}, "TNF-α [4]": {"tested_on": "TNF-α", "test": "Inhibition of TNF-α production following LPS-stimulation of human PBMC", "assay_type": "cell-based", "conditions": "for IC50: human PBMC, LPS, read-out: IC50 for inhibiting production of TNF-α following LPS-stimulation of PBMC; for secretion of the pro-inflammatory cytokine TNF-α: in vitro", "source_text": "as §1, §2"}, "IL2": {"tested_on": "IL2", "test": "IL2 production following TCR activation of PBMC", "assay_type": "cell-based", "conditions": "in vitro", "source_text": "as §1"}, "IL6": {"tested_on": "IL6", "test": "LPS-stimulated production of IL6 by PBMC", "assay_type": "cell-based", "conditions": "for secretion of the pro-inflammatory cytokine IL6: in vitro", "source_text": "as §1"}, "IFN-γ": {"tested_on": "IFN-γ", "test": "IFN-γ production following TCR activation of T-cells", "assay_type": "cell-based", "conditions": "in vitro", "source_text": "as §1"}, "[5]": {"conditions": "cited from earlier work; for interconversion in acetone: acetone (and other anhydrous) solvent systems"}},
  "note": "“And” between values parts separate entries of the source, which are not always exact repeats. Identical values can stand only once.",
  "data": [
    {"smiles": "Nc1cccc2c1CN(C1CCC(=O)NC1=O)C2=O", "note": "(stereo not shown) [3-(4-amino-1-oxo-1,3-dihydro-isoindol-2-yl)-piperidine-2,6-dione]", "values": [
      {"measurement": "LPS-stimulated production of IL1β by PBMC", "setting": "IL1β", "result": "dose-dependent inhibition"},
      {"measurement": "secretion of the pro-inflammatory cytokine IL1β", "setting": "IL1β", "result": "markedly inhibited"},
      {"measurement": "T-cell proliferation", "setting": "T-cells", "result": "induced"},
      {"measurement": "IC50", "setting": "TNF-α [1]", "result": "~480 nM and 0.104 µg/mL"},
      {"measurement": "clinical response in patients with actinic or senile keratoses", "setting": "[2]", "result": "remarkable clinical benefit"},
      {"measurement": "acne (size and number of visible cutaneous infections and/or pimples)", "setting": "acne", "result": "significant improvements"},
      {"measurement": "clinical response in patients with wrinkles", "setting": "wrinkles", "result": "remarkable clinical benefit"},
      {"measurement": "degradation of TNF-α mRNA", "setting": "TNF-α mRNA", "result": "enhanced"},
      {"measurement": "deviations in femoral blood flow, respiratory parameters and QTc interval", "setting": "[3]", "result": "not considered treatment-related"},
      {"measurement": "arterial blood pressure", "setting": "[3]", "result": "small transient increase"},
      {"measurement": "production of the anti-inflammatory cytokine IL10", "setting": "IL10", "result": "increased"},
      {"measurement": "secretion of the anti-inflammatory cytokine IL10", "setting": "IL10", "result": "increased"},
      {"measurement": "LPS-stimulated production of TNF-α by PBMC", "setting": "TNF-α [4]", "result": "dose-dependent inhibition"},
      {"measurement": "IC50", "setting": "TNF-α [4]", "result": "~100 nM and 0.0259 µg/mL"},
      {"measurement": "secretion of the pro-inflammatory cytokine TNF-α", "setting": "TNF-α [4]", "result": "markedly inhibited"},
      {"measurement": "IL2 production", "setting": "IL2", "result": "induced"},
      {"measurement": "LPS-stimulated production of IL6 by PBMC", "setting": "IL6", "result": "dose-dependent inhibition"},
      {"measurement": "secretion of the pro-inflammatory cytokine IL6", "setting": "IL6", "result": "markedly inhibited"},
      {"measurement": "IFN-γ production", "setting": "IFN-γ", "result": "induced"}
    ]},
    {"smiles": "Nc1cccc2c1CN(C1CCC(=O)NC1=O)C2=O", "note": "(stereo not shown) [Form C, 3-(4-amino-1-oxo-1,3 dihydro-isoindol-2-yl)-piperidene-2,6-dione]", "values": [
      {"measurement": "hygroscopicity", "setting": "[5]; below about 85% RH", "result": "not hygroscopic"},
      {"measurement": "form conversion at higher relative humidities", "setting": "[5]", "result": "can convert to Form B"}
    ]},
    {"smiles": "O=C1CCC(N2C(=O)c3ccccc3C2=O)C(=O)N1", "note": "(stereo not shown) [Thalidomide, thalidomide, reference compound]", "values": [
      {"measurement": "IC50", "setting": "TNF-α [4]", "result": 50.1, "unit": "µg/mL"}
    ]},
    {"smiles": "Nc1cccc2c1CN(C1CCC(=O)NC1=O)C2=O", "note": "(stereo not shown) [Form D, 3-(4-amino-1-oxo-1,3 dihydro-isoindol-2-yl)-piperidene-2,6-dione]", "values": [
      {"measurement": "form conversion at higher relative humidities", "setting": "[5]", "result": "convert to Form B"}
    ]},
    {"smiles": "Nc1cccc2c1CN(C1CCC(=O)NC1=O)C2=O", "note": "(stereo not shown) [Form B, 3-(4-amino-1-oxo-1,3 dihydro-isoindol-2-yl)-piperidene-2,6-dione]", "values": [
      {"measurement": "form conversion upon heating", "setting": "[5]; 175° C. for about five minutes", "result": "convert to Form F"},
      {"measurement": "interconversion in acetone", "setting": "[5]", "result": "converts to other forms"},
      {"measurement": "form stability / interconversion in aqueous solvent systems", "setting": "[5]; aqueous solvent systems", "result": "converts to Form E"}
    ]},
    {"smiles": "Nc1cccc2c1C(=O)N(C1CCC(=O)NC1=O)C2=O", "note": "(stereo not shown) [4-(amino)-2-(2,6-dioxo(3-piperidyl))-isoindoline-1,3-dione]", "values": [
      {"measurement": "LPS-stimulated production of IL1β by PBMC", "setting": "IL1β", "result": "dose-dependent inhibition"},
      {"measurement": "secretion of the pro-inflammatory cytokine IL1β", "setting": "IL1β", "result": "markedly inhibited"},
      {"measurement": "T-cell proliferation", "setting": "T-cells", "result": "induced"},
      {"measurement": "IC50", "setting": "TNF-α [1]", "result": "~25 nM and 0.00683 µg/mL"},
      {"measurement": "acne (size and number of visible cutaneous infections and/or pimples)", "setting": "acne", "result": "significant improvements"},
      {"measurement": "degradation of TNF-α mRNA", "setting": "TNF-α mRNA", "result": "enhanced"},
      {"measurement": "deviations in femoral blood flow, respiratory parameters and QTc interval", "setting": "[3]", "result": "not considered treatment-related"},
      {"measurement": "arterial blood pressure", "setting": "[3]", "result": "small transient increase"},
      {"measurement": "production of the anti-inflammatory cytokine IL10", "setting": "IL10", "result": "increased"},
      {"measurement": "secretion of the anti-inflammatory cytokine IL10", "setting": "IL10", "result": "increased"},
      {"measurement": "LPS-stimulated production of TNF-α by PBMC", "setting": "TNF-α [4]", "result": "dose-dependent inhibition"},
      {"measurement": "IC50", "setting": "TNF-α [4]", "result": "~24 nM and 0.00655 µg/mL"},
      {"measurement": "secretion of the pro-inflammatory cytokine TNF-α", "setting": "TNF-α [4]", "result": "markedly inhibited"},
      {"measurement": "IL2 production", "setting": "IL2", "result": "induced"},
      {"measurement": "LPS-stimulated production of IL6 by PBMC", "setting": "IL6", "result": "dose-dependent inhibition"},
      {"measurement": "secretion of the pro-inflammatory cytokine IL6", "setting": "IL6", "result": "markedly inhibited"},
      {"measurement": "IFN-γ production", "setting": "IFN-γ", "result": "induced"}
    ]},
    {"smiles": "Nc1cccc2c1CN(C1CCC(=O)NC1=O)C2=O", "note": "(stereo not shown) [Form E, 3-(4-amino-1-oxo-1,3 dihydro-isoindol-2-yl)-piperidene-2,6-dione]", "values": [
      {"measurement": "interconversion in THF", "setting": "[5]; THF solvent system", "result": "Form G"},
      {"measurement": "form conversion upon heating (desolvation)", "setting": "[5]; about 125° C. for about five minutes", "result": "convert to Form B"},
      {"measurement": "interconversion in acetone", "setting": "[5]", "result": "convert to Form C"}
    ]}
  ]
}
